In US12172983B2, “EGFR inhibitors” (Blueprint Medicines Corporation, priority 2019, dated 2024) one finds IC50 data, which are given here for 18 molecules.

SMILES strings stand for the structures. pIC50: −log10 of the molar value. Read-outs that look alike come from different tables or passages of the source. Some results are limits rather than exact numbers.

Assay [1] concerns phosphorylation of EGFR (Tyr1068) in NCI-H1975 cell line that harbors the EGFR L858R T790M mutations. Description: NCI-H1975 pEGFR AlphaLISA assay. Type of assay: cell-based. The following applies: 4-5 hours incubation, read-out: Ext pEGFR H1975. In a few lines: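 NCI-H1975 cells (EGFR L858R/T790M) seeded overnight, then treated with compound for 4-5 h at 37 °C/5% CO2. After lysis, p-EGFR (Tyr1068) quantified by AlphaLISA SureFire Ultra with acceptor then donor beads; IC50 fitted from percent inhibition versus log concentration.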

The next assay addresses T1, EGFR (L858R T790M C797S) (Homo sapiens, UniProt P00533, C797S/L858R/T790M).
T1 construct: purchased SignalChem E10-122VG
Put plainly: Biochemical EGFR inhibition assay (Caliper mobility shift), EGFR LRTMCS mutant. The following applies: inhibitory activity against EGFR LRTMCS mutant; apparent IC50; read-out: Ext Enz LRTMCS. The method, then:
Reactions proceeded until between 10% to 20% total peptides were phosphorylated at room temperature (25° C.) and were terminated with 35 mM 2,2′,2″,2′″-(ethane-1,2-diyldinitrilo)tetraacetic acid (EDTA). Product was detected using the Caliper mobility shift detection method where the phosphorylated peptide (product) and substrate were electrophoretically separated and measured. Percent activity was plotted against log concentration of compound and points to generate an apparent IC50.

The mark [2] stands for this setting: Homo sapiens, NCI-H1975, inhibition of phosphorylation of mutant EGFR in NCI-H1975 cells.
The mark [3] stands for this setting: inhibition of phosphorylation of mutant EGFR in NCI-H1975 cells.

T1 sequence (P00533 25-1210 T790M/C797S/L858R): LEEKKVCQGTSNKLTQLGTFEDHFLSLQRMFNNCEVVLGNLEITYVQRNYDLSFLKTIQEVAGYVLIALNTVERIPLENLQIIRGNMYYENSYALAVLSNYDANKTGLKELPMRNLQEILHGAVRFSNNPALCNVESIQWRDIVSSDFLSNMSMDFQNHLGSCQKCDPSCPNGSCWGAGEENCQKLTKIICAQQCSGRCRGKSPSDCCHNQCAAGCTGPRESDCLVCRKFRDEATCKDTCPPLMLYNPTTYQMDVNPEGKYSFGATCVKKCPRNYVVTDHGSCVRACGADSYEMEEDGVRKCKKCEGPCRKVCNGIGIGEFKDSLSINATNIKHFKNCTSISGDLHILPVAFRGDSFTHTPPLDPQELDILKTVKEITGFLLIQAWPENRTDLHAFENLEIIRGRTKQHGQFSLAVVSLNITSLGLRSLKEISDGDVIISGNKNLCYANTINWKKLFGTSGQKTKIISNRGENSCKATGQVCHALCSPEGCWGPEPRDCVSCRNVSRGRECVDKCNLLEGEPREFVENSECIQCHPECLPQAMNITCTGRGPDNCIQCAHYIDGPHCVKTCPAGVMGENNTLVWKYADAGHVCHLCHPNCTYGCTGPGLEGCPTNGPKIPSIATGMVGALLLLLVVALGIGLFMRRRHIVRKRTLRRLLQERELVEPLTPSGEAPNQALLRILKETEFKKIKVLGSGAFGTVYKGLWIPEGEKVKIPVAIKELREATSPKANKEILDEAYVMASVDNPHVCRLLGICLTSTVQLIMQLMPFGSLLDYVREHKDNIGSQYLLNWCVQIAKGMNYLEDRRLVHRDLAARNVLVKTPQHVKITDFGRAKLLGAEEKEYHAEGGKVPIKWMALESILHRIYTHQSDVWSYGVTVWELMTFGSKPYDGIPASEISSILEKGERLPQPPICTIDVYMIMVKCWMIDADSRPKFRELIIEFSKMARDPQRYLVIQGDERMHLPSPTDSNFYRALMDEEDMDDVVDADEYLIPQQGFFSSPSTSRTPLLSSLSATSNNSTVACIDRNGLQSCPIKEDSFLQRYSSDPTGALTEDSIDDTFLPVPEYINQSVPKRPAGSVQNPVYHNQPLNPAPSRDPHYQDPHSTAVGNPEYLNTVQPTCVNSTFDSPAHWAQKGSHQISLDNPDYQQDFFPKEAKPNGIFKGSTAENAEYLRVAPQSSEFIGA

As for `CC(C)c1ccc(N2C[C@@H](CS(C)(=O)=O)[C@@H]2C)c2cnc(Nc3ccnc(N4C[C@@H](F)[C@@H](O)C(C)(C)C4)n3)cc12` (single isomer, unassigned) [Compound 183, (4S,5R)-5-fluoro-1-[4-({8-[(2S,3R)-3-(methanesulfonylmethyl)-2-methylazetidin-1-yl]-5-(propan-2-yl)isoquinolin-3-yl}amino)pyrimidin-2-yl]-3,3-dimethylpiperidin-4-ol or (4R,5S)-5-fluoro-1-[4-({8-[(2S,3R)-3-(methanesulfonylmethyl)-2-methylazetidin-1-yl]-5-(propan-2-yl)isoquinolin-3-yl}amino)pyrimidin-2-yl]-3,3-dimethylpiperidin-4-ol], the pIC50 is at least 8.00 in assay [1] (setting [2]) and 7.70 to 7.82 on EGFR (L858R T790M C797S).
Taken in the same sequence, the figures for `CO[C@@H]1CN(c2nccc(Nc3cc4c(C(C)C)ccc(N5C[C@H](CS(C)(=O)=O)[C@H]5C)c4cn3)n2)CC[C@@H]1O` (single isomer, unassigned) [Compound 99, (3R,4S)-1-[4-({8-[(2R,3S)-3-(methanesulfonylmethyl)-2-methylazetidin-1-yl]-5-(propan-2-yl)isoquinolin-3-yl}amino)pyrimidin-2-yl]-3-methoxypiperidin-4-ol or (3S,4R)-1-[4-({8-[(2R,3S)-3-(methanesulfonylmethyl)-2-methylazetidin-1-yl]-5-(propan-2-yl)isoquinolin-3-yl}amino)pyrimidin-2-yl]-3-methoxypiperidin-4-ol] were 7.70 to 8.00 and at least 7.82.
As for `CCS(=O)(=O)C[C@H]1CN(c2ccc(C(C)C)c3cc(Nc4ccnc(N5CC[C@H](OCCO)[C@H](F)C5)n4)ncc23)[C@@H]1C` [Compound 243, 2-((3R,4S)-1-(4-(8-((2R,3S)-3-(ethylsulfonylmethyl)-2-methylazetidin-1-yl)-5-isopropylisoquinolin-3-ylamino)pyrimidin-2-yl)-3-fluoropiperidin-4-yloxy)ethanol], the figures for the pIC50 (in assay [1] (setting [2]); on EGFR (L858R T790M C797S)) were at least 8.00 and at least 7.82, respectively.
Taken in the same sequence, the figures for `CC(C)c1ccc(N2C[C@H](CS(C)(=O)=O)[C@H]2C)c2cnc(Nc3cnnc(N4CC[C@](C)(O)[C@H](F)C4)n3)cc12` (single isomer, unassigned) [Compound 141] were 7.70 to 8.00 and at least 7.82.
With `CC(C)c1ccc(N2CC(CS(C)(=O)=O)C2)c2cnc(Nc3ccnc(N4CCC5(CCO5)CC4)n3)cc12` [Compound 38, 8-[3-(methanesulfonylmethyl)azetidin-1-yl]-N-(2-{1-oxa-7-azaspiro[3.5]nonan-7-yl}pyrimidin-4-yl)-5-(propan-2-yl)isoquinolin-3-amine], the pIC50 in assay [1] (setting [2]) is at least 8.00; on EGFR (L858R T790M C797S) it was at least 7.82.
On the same counts, the results for `CO[C@H]1CCN(c2nccc(Nc3cc4c(C(C)C)ccc(N5C[C@H](CS(C)(=O)=O)[C@H]5C)c4cn3)n2)C[C@@H]1O` (single isomer, unassigned) [Compound 92, (3S,4S)-1-(4-(5-isopropyl-8-(2R,3S)-2-methyl-3-(methylsulfonylmethyl)azetidin-1-yl)isoquinolin-3-ylamino)pyrimidin-2-yl)-4-methoxypiperidin-3-ol or (3R,4R)-1-(4-(5-isopropyl-8-((2R,3S)-2-methyl-3-(methylsulfonylmethyl)azetidin-1-yl)isoquinolin-3-ylamino)pyrimidin-2-yl)-4-methoxypiperidin-3-ol] are at least 8.00 and at least 7.82.
For the molecule `[2H]C([2H])([2H])O[C@H]1CCN(c2nccc(Nc3cc4c(C(C)C)ccc(N5CC(CS(C)(=O)=O)C5)c4cn3)n2)CC1(F)F` (single isomer, unassigned) [Compound 286, N-{2-[(4S)-3,3-difluoro-4-(^2H3)methoxypiperidin-1-yl]pyrimidin-4-yl}-8-[3-(methanesulfonylmethyl)azetidin-1-yl]-5-(propan-2-yl)isoquinolin-3-amine or N-{2-[(4R)-3,3-difluoro-4-(^2H3)methoxypiperidin-1-yl]pyrimidin-4-yl}-8-[3-(methanesulfonylmethyl)azetidin-1-yl]-5-(propan-2-yl)isoquinolin-3-amine], the pIC50 in assay [1] (setting [2]) was 7.70 to 8.00; on EGFR (L858R T790M C797S), 7.70 to 7.82.
Consider `[2H]C([2H])([2H])O[C@@H]1CCN(c2nccc(Nc3cc4c(C(C)C)ncc(N5C[C@H](CS(C)(=O)=O)[C@H]5C)c4cn3)n2)C[C@@H]1F` (single isomer, unassigned) [Compound 162, N-{2-[(3R,4S)-3-fluoro-4-(^2H3)methoxypiperidin-1-yl]pyrimidin-4-yl}-8-[(2R,3S)-3-(methanesulfonylmethyl)-2-methylazetidin-1-yl]-5-(propan-2-yl)-2,6-naphthyridin-3-amine or N-{2-[(3S,4R)-3-fluoro-4-(^2H3)methoxypiperidin-1-yl]pyrimidin-4-yl}-8-[(2R,3S)-3-(methanesulfonylmethyl)-2-methylazetidin-1-yl]-5-(propan-2-yl)-2,6-naphthyridin-3-amine], for which the pIC50 in assay [1] (setting [3]) is at least 8.00; at EGFR (L858R T790M C797S), at least 7.82.
On to `CCS(=O)(=O)C[C@H]1CN(c2ccc(C(C)C)c3cc(Nc4ccnc(N5CC[C@@](C)(O)[C@@H](F)C5)n4)ncc23)[C@@H]1C` (single isomer, unassigned) [Compound 186], for which the pIC50 in assay [1] (setting [2]) was at least 8.00; on EGFR (L858R T790M C797S), at least 7.82.
As for `[2H]C([2H])([2H])O[C@@H]1CCN(c2nccc(Nc3cc4c(C(C)C)ccc(N5CC(CS(C)(=O)=O)C5)c4cn3)n2)C[C@@H]1F` (single isomer, unassigned) [Compound 82], the pIC50 was at least 8.00 in assay [1] (setting [2]) and at least 7.82 at EGFR (L858R T790M C797S).
Taken in the same sequence, the figures for `CC(C)c1ccc(N2C[C@H](CS(C)(=O)=O)[C@H]2C)c2cnc(Nc3ccnc(N4CC[C@@H](OCC(C)(C)O)[C@@H](F)C4)n3)cc12` [Compound 256, 1-{[(3S,4R)-3-fluoro-1-[4-({8-[(2R,3S)-3-(methanesulfonylmethyl)-2-methylazetidin-1-yl]-5-(propan-2-yl)isoquinolin-3-yl}amino)pyrimidin-2-yl]piperidin-4-yl]oxy}-2-methylpropan-2-ol] were at least 8.00 and 7.52 to 7.70.
Consider `CC(C)c1ccc(N2CC(CS(C)(=O)=O)C2)c2cnc(Nc3ccnc(N4CC[C@@H](O)[C@@H](F)C4)n3)cc12` [Compound 28, (3S,4R)-3-fluoro-1-[4-({8-[3-(methanesulfonylmethyl)azetidin-1-yl]-5-(propan-2-yl)isoquinolin-3-yl}amino)pyrimidin-2-yl]piperidin-4-ol], for which the figures for the pIC50 (in assay [1] (setting [2]); at EGFR (L858R T790M C797S)) were at least 8.00 and at least 7.82, respectively.
As to `CO[C@H]1CCN(c2nccc(Nc3cc4c(F)ccc(N5C[C@H](CS(C)(=O)=O)[C@H]5C)c4cn3)n2)C[C@H]1F` [Compound 37, 5-fluoro-N-{2-[(3R,4S)-3-fluoro-4-methoxypiperidin-1-yl]pyrimidin-4-yl}-8-[(2R,3S)-3-(methanesulfonylmethyl)-2-methylazetidin-1-yl]isoquinolin-3-amine], the pIC50 is 7.70 to 8.00 in assay [1] (setting [2]) and at least 7.82 at EGFR (L858R T790M C797S).
On the same counts, the results for `CC(C)c1ccc(N2CC(CS(C)(=O)=O)C2)c2cnc(Nc3ccnc(N4C[C@H]5CC[C@@H](C4)[C@@H]5O)n3)cc12` [Compound 39, Rac (1R,5S,8S)-3-[4-({8-[3-(methanesulfonylmethyl)azetidin-1-yl]-5-(propan-2-yl)isoquinolin-3-yl}amino)pyrimidin-2-yl]-3-azabicyclo[3.2.1]octan-8-ol] are 7.30 to 7.52 and at least 7.82.
`CC(C)c1ccc(N2CC(CS(C)(=O)=O)C2)c2cnc(Nc3ccnc(N4CC[C@H](O)[C@H](C)C4)n3)cc12` (single isomer, unassigned) [Compound 20, (3R,4S)-1-[4-({8-[3-(methanesulfonylmethyl)azetidin-1-yl]-5-(propan-2-yl)isoquinolin-3-yl}amino)pyrimidin-2-yl]-3-methylpiperidin-4-ol or (3S,4R)-1-[4-({8-[3-(methanesulfonylmethyl)azetidin-1-yl]-5-(propan-2-yl)isoquinolin-3-yl}amino)pyrimidin-2-yl]-3-methylpiperidin-4-ol]: the pIC50 in assay [1] (setting [3]) was 7.30 to 7.52; on EGFR (L858R T790M C797S), 7.70 to 7.82.
As for `CC(C)c1ccc(N2CC(CS(C)(=O)=O)C2)c2cnc(Nc3ccnc(N4CC[C@@H](OCCO)[C@@H](F)C4)n3)cc12` [Compound 205, 2-{[(3S,4R)-3-fluoro-1-[4-({8-[3-(methanesulfonylmethyl)azetidin-1-yl]-5-(propan-2-yl)isoquinolin-3-yl}amino)pyrimidin-2-yl]piperidin-4-yl]oxy}ethan-1-ol], the pIC50 is at least 8.00 in assay [1] (setting [2]) and at least 7.82 at EGFR (L858R T790M C797S).
Regarding `CCc1ccc(N2C[C@H](CS(C)(=O)=O)[C@H]2C)c2cnc(Nc3ccnc(N4CC[C@@H](O)[C@@](C)(F)C4)n3)cc12` (single isomer, unassigned) [Compound 65], the pIC50 was at least 8.00 in assay [1] (setting [2]) and at least 7.82 on EGFR (L858R T790M C797S).
On the same counts, the results for `CCS(=O)(=O)C[C@H]1CN(c2nnc(C(C)C)c3cc(Nc4ccnc(N5CC[C@@H](OC)[C@@H](F)C5)n4)ncc23)[C@@H]1C` [Compound 206, N-{4-[(2R,3S)-3-[(ethanesulfonyl)methyl]-2-methylazetidin-1-yl]-1-(propan-2-yl)pyrido[3,4-d]pyridazin-7-yl}-2-[(3S,4R)-3-fluoro-4-methoxypiperidin-1-yl]pyrimidin-4-amine] are at least 8.00 and at least 7.82.
